Data on 1 molecule can be found in article PMC5316935, “Mangiferin from Pueraria tuberosa reduces inflammation via inactivation of NLRP3 inflammasome” (Scientific Reports, 2017).

This test concerns T1, COX-2.
T1 construct: gene Ptgs2
Briefly: chromogenic TMPD oxidation assay of COX-2 activity; RAW […] cells per figure legend. The test is classed as biochemical.

`O=c1c2cc(O)c(O)cc2oc2cc(O)c([C@@H]3O[C@H](CO)[C@@H](O)[C@H](O)[C@H]3O)c(O)c12` [PT-Mangiferin, Mangiferin]: the IC50 was found to be 40 µM.

The IC50 is the midpoint of a concentration-inhibition curve. A higher IC50 goes with a need for much substance.
